Assays:
ULK1 kinase [1] = biological target: T1, ULK1 kinase (Homo sapiens, UniProt O75385); assay: Biochemical assay for ULK1.2 (coupled pyruvate kinase/lactate dehydrogenase assay); settings: 19 nM ULK1 (residues 1-314, His tag), myelin basic protein, 1 mM ATP
T1 construct: purchased Eurofins 14-959
T1 sequence (O75385 with tags, fused parts or gaps): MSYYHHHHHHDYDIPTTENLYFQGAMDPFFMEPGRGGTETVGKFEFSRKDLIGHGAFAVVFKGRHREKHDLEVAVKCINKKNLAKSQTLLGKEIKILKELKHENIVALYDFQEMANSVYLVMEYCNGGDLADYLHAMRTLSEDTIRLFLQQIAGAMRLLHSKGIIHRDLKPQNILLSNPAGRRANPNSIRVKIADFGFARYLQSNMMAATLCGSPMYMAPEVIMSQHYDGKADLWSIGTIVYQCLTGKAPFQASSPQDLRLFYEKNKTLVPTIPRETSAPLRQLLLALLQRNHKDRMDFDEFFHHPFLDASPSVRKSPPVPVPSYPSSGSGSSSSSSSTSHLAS
Method: Biochemical Assay for ULK1.2 (SEQ. ID NO: 1)
Inhibition of ULK1 was measured by adding serial diluted test compound (final assay concentration of 1% DMSO). A decrease in absorption at 340 nm was monitored continuously for 6 hours at 30° C. on a multi-mode microplate reader (BioTek). The reaction rate was calculated using the 2-3 h time frame. The reaction rate at each concentration of compound was converted to percent inhibition using controls (i.e. reaction with no test compound and reaction with a known inhibitor) and IC50 values were calculated by fitting a four-parameter sigmoidal curve to the data using Prism (GraphPad software).

ULK kinase [2] = assay: pATG13 levels of mutant BRAF A375 cells after treatment with ULK inhibitors in combination with trametinib (ELISA); format: cell-based, human; settings: A375 malignant melanoma cells (mutant BRAF), 250 nM trametinib, overnight, pS318-ATG13
Method: A375 human malignant melanoma cancer cells (20000 cells/well) were added to a 96-well tissue-culture treated plate in 100 μL of pre-warmed DMEM medium supplemented with 10% characterized fetal bovine serum (Invitrogen, Carlsbad, Calif.), 100 units/mL penicillin G, and 100 μg/mL streptomycin and allowed to grow overnight at 37° C., 5% CO2, and 95% humidity. The following day, 100 μL of media containing trametinib or DMSO as a control was added to wells. […] A dose response of a test compound (0.5 μL per well) was added. DMSO (0.5 μL) was added to control wells. The plate was briefly shaken to mix wells and then incubated at 37° C. overnight. The next day, the media was aspirated and cells were washed with Dulbecco's Phosphate Buffered Saline (Gibco). Cells were lysed using MPER lysis buffer (Pierce, Rockford, Ill.) containing Halt Phosphatase and Protease Inhibitors (Pierce, Rockford, Ill.) and Phosphatase inhibitor cocktail 2 (Sigma, St. Louis, Mo.) at 4° C. for 10 minutes with shaking.
(§1) Plate wells were washed with ELISA wash buffer. Cell lysate was added to wells and incubated at room temperature for 2 hours. Plate wells were washed with ELISA wash buffer. […] Plate wells were washed with ELISA wash buffer. […] Plate wells were washed with ELISA wash buffer. […] The reaction was stopped with 2N Sulfuric Acid. The plate was analyzed at on a plate reader measuring absorbance at 450 nm and 540 nm (background). Signal was calculated by first subtracting the background absorbance at 540 nm from the absorbance at 450 nm for each well. Next, the background corrected absorbance at 450 nm from blank wells was subtracted from test wells. Data was compared to control wells to determine % ATG13 phosphorylation. GraphPad Prism was used to calculate IC50 values.

ULK kinase [3] = assay: pATG13 levels of mutant KRas MiaPaCa-2 cells after treatment with ULK inhibitors in combination with trametinib (ELISA); format: cell-based, human; settings: MiaPaCa-2 pancreatic cancer cells, 250 nM trametinib, overnight, pS318-ATG13
Outline: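 MiaPaCa-2 cells in DMEM with 10% FBS and 2.5% horse serum were pretreated with trametinib or DMSO, then given a test-compound dose response overnight at 37° C. Lysates were assayed for phospho-ATG13 by ELISA (A450 minus A540 background, blank-corrected). % phosphorylation was calculated relative to controls and fitted to IC50.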

ULK kinase [4] = assay: pATG13 levels of mutant KRas A549 cells after treatment with ULK inhibitors in combination with trametinib (ELISA); format: cell-based, human; settings: A549 (KRAS mutant) lung cancer cells, 250 nM trametinib, overnight, pS318-ATG13
Outline: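 Lysates with phosphatase/protease inhibitors assayed by pATG13 ELISA, A450 minus A540 background and blank-corrected. % ATG13 phosphorylation versus DMSO controls fitted to IC50.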

ULK kinase [5] = assay: pATG13 levels of mutant KRas HCT-116 cells after treatment with ULK inhibitors in combination with trametinib (ELISA); format: cell-based, human; settings: HCT-116 colon cancer cells, 250 nM trametinib, overnight, pS318-ATG13
Method: The following day, 10 μL of media containing trametinib or DMSO as a control was added to wells. […] A dose response of a test compound (0.6 μL per well) was added. DMSO (0.6 μL) was added to control wells. The plate was briefly shaken to mix wells and then incubated at 37° C. overnight. The next day, the media was aspirated and cells were washed with Dulbecco's Phosphate Buffered Saline (Gibco). Cells were lysed using MPER lysis buffer (Pierce, Rockford, Ill.) containing Halt Phosphatase and Protease Inhibitors (Pierce, Rockford, Ill.) and Phosphatase inhibitor cocktail 2 (Sigma, St. Louis, Mo.) at 4° C. for 10 minutes with shaking.
as §1

ULK2 kinase = biological target: T2, ULK2 kinase (Homo sapiens, UniProt Q8IYT8); assay: Biochemical assay for ULK2 (coupled pyruvate kinase/lactate dehydrogenase assay); settings: 9.7 nM ULK2 (residues 1-306, GST and His tag), myelin basic protein, 1 mM ATP; read-out: ULK2.2
T2 construct: purchased Eurofins 14-772
T2 sequence (Q8IYT8 with tags, fused parts or gaps): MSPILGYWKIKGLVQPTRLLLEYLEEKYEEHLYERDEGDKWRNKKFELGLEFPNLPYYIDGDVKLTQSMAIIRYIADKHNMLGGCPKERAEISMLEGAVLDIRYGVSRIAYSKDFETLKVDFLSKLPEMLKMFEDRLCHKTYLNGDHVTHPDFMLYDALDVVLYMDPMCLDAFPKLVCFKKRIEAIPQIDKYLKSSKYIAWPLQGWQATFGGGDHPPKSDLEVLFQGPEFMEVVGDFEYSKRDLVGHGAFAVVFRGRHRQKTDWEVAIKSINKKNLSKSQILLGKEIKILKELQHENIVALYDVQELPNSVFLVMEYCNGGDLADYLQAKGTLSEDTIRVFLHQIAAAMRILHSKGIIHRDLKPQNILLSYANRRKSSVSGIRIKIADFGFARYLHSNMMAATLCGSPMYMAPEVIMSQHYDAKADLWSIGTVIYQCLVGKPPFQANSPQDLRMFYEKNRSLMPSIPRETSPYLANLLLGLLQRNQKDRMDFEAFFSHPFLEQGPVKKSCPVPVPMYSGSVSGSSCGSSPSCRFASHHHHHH
Method: Example 132. Biochemical Assay for ULK2 (SEQ. ID NO: 3)
Activity of ULK2 kinase was determined spectroscopically using a coupled pyruvate kinase/lactate dehydrogenase assay that continuously monitors the ATP hydrolysis-dependent oxidation of NADH (e.g., Schindler et al. Science (2000) 289: 1938-1942). Assays were conducted in 384-well plates (100 uL final volume) using 9.7 nM ULK2 (Eurofins CAT #14-772), 0.25 mg/mL myelin basic protein, 1.5 units pyruvate kinase, 2.1 units lactate dehydrogenase, 1 mM phosphoenol pyruvate, 0.28 mM NADH and 1 mM ATP in assay buffer (100 mM Tris, pH 7.5, 15 mM MgCl2, 0.5 mM DTT, 0.1% octyl-glucoside, 0.002% (w/v) BSA, and 0.002% Triton X-100). Inhibition of ULK2 was measured by adding serial diluted test compound (final assay concentration of 1% DMSO). A decrease in absorption at 340 nm was monitored continuously for 6 hours at 30° C. on a multi-mode microplate reader (BioTek). The reaction rate was calculated using the 2-3 h time frame. The reaction rate at each concentration of compound was converted to percent inhibition using controls (i.e. reaction with no test compound and reaction with a known inhibitor) and IC50 values were calculated by fitting a four-parameter sigmoidal curve to the data using Prism (GraphPad software).

LRRK2 kinase = biological target: T3, LRRK2 kinase (Homo sapiens, UniProt Q5S007); assay: Biochemical assay for LRRK2 (coupled pyruvate kinase/lactate dehydrogenase assay); settings: 26.4 nM LRRK2 (residues 970-2528), peptide substrate, 1 mM ATP
T3 construct: purchased Thermo Fisher
T3 sequence (Q5S007 with tags, fused parts or gaps): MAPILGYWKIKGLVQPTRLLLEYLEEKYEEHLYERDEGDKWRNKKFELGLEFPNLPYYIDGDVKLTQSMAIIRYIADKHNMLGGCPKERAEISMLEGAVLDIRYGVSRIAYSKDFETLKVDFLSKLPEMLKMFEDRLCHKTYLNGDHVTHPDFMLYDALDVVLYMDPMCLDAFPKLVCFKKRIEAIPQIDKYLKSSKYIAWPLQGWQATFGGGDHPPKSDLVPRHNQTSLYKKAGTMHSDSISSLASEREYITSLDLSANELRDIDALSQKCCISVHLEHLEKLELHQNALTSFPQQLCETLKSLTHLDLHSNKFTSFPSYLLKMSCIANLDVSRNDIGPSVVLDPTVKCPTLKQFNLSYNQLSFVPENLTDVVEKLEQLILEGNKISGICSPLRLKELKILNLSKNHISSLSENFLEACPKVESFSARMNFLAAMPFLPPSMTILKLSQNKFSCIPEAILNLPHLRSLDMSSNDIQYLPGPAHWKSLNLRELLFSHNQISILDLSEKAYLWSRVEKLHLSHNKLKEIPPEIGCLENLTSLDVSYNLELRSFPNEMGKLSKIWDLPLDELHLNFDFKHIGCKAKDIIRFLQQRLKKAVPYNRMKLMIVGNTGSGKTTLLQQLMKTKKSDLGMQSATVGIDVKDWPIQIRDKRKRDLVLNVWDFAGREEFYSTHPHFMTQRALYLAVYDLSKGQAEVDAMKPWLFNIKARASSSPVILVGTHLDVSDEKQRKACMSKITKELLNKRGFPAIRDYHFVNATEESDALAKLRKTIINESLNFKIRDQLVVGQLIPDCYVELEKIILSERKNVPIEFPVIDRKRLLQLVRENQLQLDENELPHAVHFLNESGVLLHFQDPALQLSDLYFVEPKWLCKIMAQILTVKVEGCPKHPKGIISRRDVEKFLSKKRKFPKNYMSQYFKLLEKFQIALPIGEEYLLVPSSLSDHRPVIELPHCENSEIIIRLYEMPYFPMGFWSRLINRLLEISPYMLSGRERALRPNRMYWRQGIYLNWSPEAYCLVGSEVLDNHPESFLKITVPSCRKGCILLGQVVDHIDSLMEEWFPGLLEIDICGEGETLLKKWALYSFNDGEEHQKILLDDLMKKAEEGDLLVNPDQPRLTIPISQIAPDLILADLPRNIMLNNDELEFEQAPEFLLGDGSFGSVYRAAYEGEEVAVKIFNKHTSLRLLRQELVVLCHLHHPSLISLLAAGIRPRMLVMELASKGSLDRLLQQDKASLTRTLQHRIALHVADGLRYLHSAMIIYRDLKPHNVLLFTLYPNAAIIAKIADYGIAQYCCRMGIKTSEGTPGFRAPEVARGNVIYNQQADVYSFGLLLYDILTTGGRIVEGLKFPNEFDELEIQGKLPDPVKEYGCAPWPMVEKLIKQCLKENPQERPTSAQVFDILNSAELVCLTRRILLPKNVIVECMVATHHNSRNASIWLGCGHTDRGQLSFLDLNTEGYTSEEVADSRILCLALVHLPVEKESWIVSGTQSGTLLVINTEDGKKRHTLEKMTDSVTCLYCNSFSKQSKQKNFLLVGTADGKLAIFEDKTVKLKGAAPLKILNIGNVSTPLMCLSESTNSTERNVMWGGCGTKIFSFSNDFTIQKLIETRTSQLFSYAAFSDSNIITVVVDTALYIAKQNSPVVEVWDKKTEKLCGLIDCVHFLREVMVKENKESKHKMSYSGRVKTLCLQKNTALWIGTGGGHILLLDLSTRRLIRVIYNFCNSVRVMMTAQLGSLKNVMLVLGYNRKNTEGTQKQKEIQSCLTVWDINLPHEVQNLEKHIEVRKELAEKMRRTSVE
Outline: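 Recombinant LRRK2 (26.4 nM) with 0.1 mM peptide substrate and 1 mM ATP in Tris pH 7.5/MgCl2 buffer; ADP production coupled via PK/LDH to NADH oxidation, A340 read continuously 6 h at 30 °C. Rates from 2–3 h window converted to % inhibition versus no-compound and reference-inhibitor controls; IC50 fitted.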

ULK1 kinase [6] = biological target: T4, ULK1 kinase (Homo sapiens, UniProt O75385, E37A/K38A); assay: Biochemical assay for ULK1.3 (coupled pyruvate kinase/lactate dehydrogenase assay, peptide substrate); settings: 0.1 nM ULK1 (residues 1-283), 1 mM ATP
T4 construct: purchased Beryllium
T4 sequence (O75385 1-283 E37A/K38A): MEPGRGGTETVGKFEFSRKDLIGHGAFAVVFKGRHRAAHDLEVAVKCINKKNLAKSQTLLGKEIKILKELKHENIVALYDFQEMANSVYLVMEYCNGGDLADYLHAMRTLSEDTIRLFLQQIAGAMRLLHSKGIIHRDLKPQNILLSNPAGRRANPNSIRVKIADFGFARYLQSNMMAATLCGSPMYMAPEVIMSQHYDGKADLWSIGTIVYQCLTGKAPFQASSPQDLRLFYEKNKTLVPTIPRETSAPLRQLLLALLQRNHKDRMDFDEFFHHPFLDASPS
Outline: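 ULK1.3 activity was followed by continuous decrease in 340 nm absorbance over 6 h at 30 °C with 1% DMSO final. Rates were taken from the 2–3 h window and converted to percent inhibition against no-compound and known-inhibitor controls. IC50 values came from curve fitting.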

Compound	IC50 (ULK1 kinase [1]) [nM]	IC50 (ULK kinase [2]) [nM]	IC50 (ULK kinase [3]) [nM]	IC50 (ULK kinase [4]) [nM]	IC50 (ULK kinase [5]) [nM]	IC50 (ULK2 kinase) [nM]	IC50 (LRRK2 kinase) [nM]	IC50 (ULK1 kinase [6]) [nM]
CCc1cc(N2CCN(C)CC2)ccc1Nc1ncc(C(F)(F)F)c(NCCCN2CCCCC2=O)n1 [Example 11]	1 to 25	10 to 100	10 to 100	100 to 300	10 to 100	1 to 25	–	–
Cc1cc(N2CCNCC2)ccc1Nc1ncc(C(F)(F)F)c(NCCCN2CCCOC2=O)n1 [Example 37]	–	300 to 600	10 to 100	100 to 300	–	–	100 to 300	1 to 25
CN1CCN(c2ccc(Nc3ncc(C(F)(F)F)c(NCCCN4CCOCC4=O)n3)c(C3CC3)c2)CC1 [Example 47]	–	300 to 600	300 to 600	100 to 300	100 to 300	–	100 to 300	25 to 100
CCc1cc(N2CCN(C)CC2)ccc1Nc1ncc(C(F)(F)F)c(NCCCN2CCCOCC2=O)n1 [Example 54]	1 to 25	–	10 to 100	10 to 100	10 to 100	25 to 100	–	–
CCc1cc(N2CCN(C)CC2)ccc1Nc1ncc(Cl)c(NCCCN2CCCOCC2=O)n1 [Example 58]	100 to 500	–	10 to 100	100 to 300	10 to 100	> 500	100 to 300	–
CCc1cc(N2CC3CCC(C2)N3C)ccc1Nc1ncc(C(F)(F)F)c(NCCCN2CCCOC2=O)n1 [Example 69]	–	–	10 to 100	10 to 100	10 to 100	–	300 to 600	1 to 25
Cc1cc(N2CCNCC2)ccc1Nc1ncc(C(F)(F)F)c(NCCCN2CCOCCC2=O)n1 [Example 75]	–	100 to 300	10 to 100	100 to 300	100 to 300	–	–	1 to 25
CCc1cc(N2CCN3CCC[C@@H]3C2)ccc1Nc1ncc(C(F)(F)F)c(NCCCN2CCCOC2=O)n1 [Example 106]	–	–	10 to 100	10 to 100	10 to 100	–	100 to 300	1 to 25

Next, values leading:

IC50 (ULK1 kinase [1]) [nM]	IC50 (ULK kinase [2]) [nM]	IC50 (ULK kinase [3]) [nM]	IC50 (ULK kinase [4]) [nM]	IC50 (ULK kinase [5]) [nM]	IC50 (ULK2 kinase) [nM]	IC50 (LRRK2 kinase) [nM]	IC50 (ULK1 kinase [6]) [nM]	Compound
1 to 25	–	100 to 300	300 to 600	100 to 300	25 to 100	–	–	Cc1cc(N2CCN(C)CC2)ccc1Nc1ncc(C(F)(F)F)c(NCCCN2CCCCC2=O)n1 [Example 20]
25 to 100	10 to 100	10 to 100	10 to 100	10 to 100	100 to 500	–	–	CCc1cc(N2CCN(C)CC2)ccc1Nc1ncc(Br)c(NCCCN2CCCCC2=O)n1 [Example 23, 1-(3-((5-bromo-2-((2-ethyl-4-(4-methylpiperazin-1-yl)phenyl)amino)pyrimidin-4-yl)amino)propyl)piperidin-2-one]
1 to 25	300 to 600	100 to 300	100 to 300	10 to 100	–	–	–	CCN1CCN(c2ccc(Nc3ncc(C(F)(F)F)c(NCCCN4CCCOCC4=O)n3)c(C(C)C)c2)CC1 [Example 60]
1 to 25	10 to 100	100 to 300	100 to 300	10 to 100	100 to 500	–	–	CCN1CCN(c2ccc(Nc3ncc(C(F)(F)F)c(NCCCN4CCOCCC4=O)n3)c(C(C)C)c2)CC1 [Example 73]
–	100 to 300	10 to 100	10 to 100	100 to 300	–	–	1 to 25	O=C1CCOCCN1CCCNc1nc(Nc2ccc(N3CCNCC3)cc2C2CC2)ncc1C(F)(F)F [Example 85]
–	–	10 to 100	10 to 100	10 to 100	–	1 to 100	1 to 25	CCc1cc(N2CCN3CCC[C@@H]3C2)ccc1Nc1ncc(C(F)(F)F)c(NCCCN2CCOCCC2=O)n1 [Example 105]

From US11530206B2, “Phenylaminopyrimidine amide autophagy inhibitors and methods of use thereof” (Deciphera Pharmaceuticals, LLC, priority 2019, dated 2022)
